Assay results published in ChEMBL document CHEMBL4840377, “Colletofragarone A2 and Colletoins A-C from a Fungus Colletotrichum sp. Decrease Mutant p53 Levels in Cells” (J Nat Prod, 2021).

Tested on: not listed separately
Assay: Reduction in p53 R175H mutant protein level in human SAOS-2 cells assessed as ratio of test compound fluorescence to control fluorescence at 2 uM measured after 2 hrs by Hoechst 33342 staining based immunofluorescence assay
Assay type: functional
Details: not given

Compound	Ratio
C/C=C/C=C\C=C\C1=C2C(=O)O[C@@H](C)CCCC[C@@H]3C(=O)C=C[C@H](O1)[C@H]23	0.57
C/C=C/C=C/C=C/C1=C2C(=O)O[C@@H](C)C[C@@H](O)C[C@@H](O)[C@@H]3C(=O)C=C[C@H](O1)[C@H]23	0.4

Tested on: SAOS-2
Assay: Cytotoxicity against human SAOS-2 cells harbouring p53 R175H mutant incubated for 3 days by MTT assay
Assay type: functional, cell-based
Details: SAOS-2, 72 h

Compound	IC50
C/C=C/C=C/C=C/C1=C2C(=O)O[C@@H](C)C[C@@H](O)C[C@@H](O)[C@@H]3C(=O)C[C@@H](O)[C@H](O1)[C@H]23	21 µM
C/C=C/C=C/C=C/C1=C2C(=O)O[C@@H](C)C[C@@H](O)C[C@@H](O)[C@H]3C(=O)C[C@@H](O)[C@H](O1)[C@H]23	12 µM
C/C=C/C=C\C=C\C1=C2C(=O)O[C@@H](C)CCCC[C@@H]3C(=O)C=C[C@H](O1)[C@H]23	0.36 µM
C/C=C/C=C/C=C/C1=C2C(=O)O[C@@H](C)C[C@@H](O)C[C@@H](O)[C@@H]3C(=O)C=C[C@H](O1)[C@H]23	0.35 µM
